Like-named read-outs stand apart in the source and are kept apart here. Marks after values point to notes of the source that are not given here.
What was measured:
[1] = system: Du145 cells; test: Calcein AM cytotoxicity assay, Du145; type: cell-based; conditions: Homo sapiens, DU-145; Du145, Calcein AM, 72 h; read-out: IC50
From the text: (§1) Five serial 1:2 dilutions were made with anhydrous DMSO at 100× the final concentration used in the assay.

[2] = system: Du145 cells; test: Cell Titer-Glo cytotoxicity assay, Du145; type: cell-based; conditions: Homo sapiens, DU-145; Du145, Cell Titer-Glo, 72 h; read-out: IC50
From the text: as §1

[3] = system: HCT-116 cells; test: Calcein AM cytotoxicity assay, HCT-116; type: cell-based; conditions: Homo sapiens; HCT-116, Calcein AM, 72 h; read-out: IC50
From the text: as §1

[4] = system: HCT-116 cells; test: Cell Titer-Glo cytotoxicity assay, HCT-116; type: cell-based; conditions: Homo sapiens; HCT-116, Cell Titer-Glo, 72 h; read-out: IC50
From the text: as §1

[5] = system: Hep3B cells; test: Calcein AM cytotoxicity assay, Hep3B; type: cell-based; conditions: Homo sapiens, Calcein AM, 72 h, read-out: IC50
From the text: as §1

[6] = system: Hep3B cells; test: Cell Titer-Glo cytotoxicity assay, Hep3B; type: cell-based; conditions: Homo sapiens, Cell Titer-Glo, 72 h, read-out: IC50
From the text: as §1

[7] = system: SF-268 cells; test: Calcein AM cytotoxicity assay, SF-268; type: cell-based; conditions: Homo sapiens; SF-268, Calcein AM, 72 h; read-out: IC50
From the text: as §1

[8] = system: SF-268 cells; test: Cell Titer-Glo cytotoxicity assay, SF-268; type: cell-based; conditions: Homo sapiens; SF-268, Cell Titer-Glo, 72 h; read-out: IC50
From the text: as §1

[9] = system: SK-OV-3 cells; test: Calcein AM cytotoxicity assay, SK-OV-3; type: cell-based; conditions: Homo sapiens; SK-OV-3, Calcein AM, 72 h; read-out: IC50
From the text: as §1

[10] = system: SK-OV-3 cells; test: Cell Titer-Glo cytotoxicity assay, SK-OV-3; type: cell-based; conditions: Homo sapiens; SK-OV-3, Cell Titer-Glo, 72 h; read-out: IC50
From the text: as §1

[11] = system: NCI/ADR RES cells; test: Calcein AM cytotoxicity assay, NCI/ADR-RES; type: cell-based; conditions: Homo sapiens, Calcein AM, 72 h, read-out: IC50
From the text: as §1

[12] = system: NCI/ADR RES cells; test: Cell Titer-Glo cytotoxicity assay, NCI/ADR-RES; type: cell-based, human; conditions: Homo sapiens; NCI/ADR-RES, Cell Titer-Glo, 72 h; read-out: IC50
From the text: as §1

[13] = system: NCI-H460 cells; test: Calcein AM cytotoxicity assay, NCI-H460; type: cell-based; conditions: Homo sapiens; NCI-H460, Calcein AM, 72 h; read-out: IC50
From the text: as §1

[14] = system: NCI-H460 cells; test: Cell Titer-Glo cytotoxicity assay, NCI-H460; type: cell-based, human; conditions: Homo sapiens; NCI-H460, Cell Titer-Glo, 72 h; read-out: IC50
From the text: as §1

[15] = system: MCF7 cells; test: Calcein AM cytotoxicity assay, MCF7; type: cell-based; conditions: Homo sapiens; MCF7, Calcein AM, 72 h; read-out: IC50
From the text: as §1

[16] = system: MCF7 cells; test: Cell Titer-Glo cytotoxicity assay, MCF7; type: cell-based, human; conditions: Homo sapiens; MCF7, Cell Titer-Glo, 72 h; read-out: IC50
From the text: as §1

[17] = system: NmuMG mouse mammary normal epithelial cells; test: Calcein AM cytotoxicity assay, NmuMG; type: cell-based; conditions: Epithelial cell, NmuMG, Calcein AM, 72 h, read-out: IC50
From the text: as §1

[18] = system: NmuMG mouse mammary normal epithelial cells; test: Cell Titer-Glo cytotoxicity assay, NmuMG; type: cell-based; conditions: Mus musculus, Epithelial cell; NmuMG, Cell Titer-Glo, 72 h; read-out: IC50
From the text: as §1

[19] = system: HT-29 cells; test: MTT cytotoxicity assay, HT-29; type: cell-based; conditions: Homo sapiens; HT-29, MTT, 24 h; read-out: IC50
From the text: The IC50 value for each library member represents at least twelve replicates of dose-response experiments conducted over five concentrations. […] In this assay, live cells were distinguished by the intracellular enzymatic activity that converts the cell-permeable molecule MTT to strongly colored formazan crystals, which are retained within live cells and absorb light at 570 nm.
MTT Cytotoxicity Assay. HT-29 cell lines were maintained in RPMI medium 1640 supplemented with 10% (wt/vol) FBS and 1% penicillin-streptomycin (PS) (100 units/mL and 100 μg/mL). Cells were harvested by trypsinization using 0.25% trypsin and 0.1% EDTA and plated at a density of 2,000-5,000 cells per well of each 96-well microtiter plate. Cells were grown for 24 h at 37° C., with 5% CO2/95% air in a humidified incubator to allow cell attachment to occur before compound addition. Library members were stored at −20° C. under desiccating conditions before the assay. Library member stocks (1000×) were prepared in falcon tubes (BD Biosciences). Five dilutions were made with DMSO at 1000× the final concentration used in the assay. The 1000× stocks (3 μL) were diluted with complete culture medium (3 mL). Each plate contained twelve replicates of cells treated with 0.1% DMSO in complete cell culture medium that served as an individual negative control. Library member stocks (1×, 200 μL) were added to aspirated cells and replicated twelve times on each plate. Cells were incubated with the library members for 24 h before optical density reading. Test plates were removed from the incubator and washed once in sterile PBS to remove serum containing library members. Freshly-made 10×MTT solution in sterile PBS (5 mg/mL) was diluted 1:10 in serum-free culture medium and was sterilized using a 0.2 μm filter. Diluted MTT solution (1×, 50 μL) was added to each well and the plates were incubated in the dark for 2 h. Test plates were centrifuged at 1800×g for 5 min at 4° C. using a Beckman GPR centrifuge. MTT solution was removed by aspiration and 100 μL DMSO was added to each well to lyse cells and solubilize formazan crystals. Test plates were incubated in the dark at room temperature for 10 min. Plates were read for optical density at 570 nm.
IC50 Calculations. For each library member, at least three dose-response experiments were conducted on separate plates. […] To calculate IC50, percent inhibitions were plotted as a function of log[concentration] and then fit to a four-parameter logistic model that allowed for a variable Hill slope by using XLFIT 4.1 (ID Business Solutions, Emeryville, Calif.).

[20] = system: human cancer cell lines; test: Cytotoxicity across the panel of human cancer cell lines (average, high-throughput assays); type: cell-based
From the text: as §1

[21] = system: NmuMG Cell Line; test: Cytotoxicity in NmuMG cell line, summary table (assay not stated); type: cell-based; conditions: Mus musculus, assay not stated (mostly Cell Titer-Glo values; Calcein AM values for 20, 24, 39)
From the text: as §1

[22] = system: HCT-116 cells; conditions: literature (27, 35); cited from earlier work
[23] = system: several cell lines; conditions: reported; cited from earlier work
[24] = average across eight human cancer cell lines, MTT (HT-29) values excluded
[25] = average across eight human cancer cell lines, MTT (HT-29) values excluded, read-out: Cancerous Average IC50 / Average IC50 in Cancer Cell Lines

| SMILES | IC50 [1] | IC50 [2] | IC50 [3] | IC50 [4] | IC50 [5] | IC50 [6] | IC50 [7] | IC50 [8] | IC50 [9] | IC50 [10] | IC50 [11] | IC50 [12] | IC50 [13] | IC50 [14] | IC50 [15] | IC50 [16] | IC50 [17] | IC50 [18] | IC50 [19] | IC50 [20, 25] | other results |
| --- | --- | --- | --- | --- | --- | --- | --- | --- | --- | --- | --- | --- | --- | --- | --- | --- | --- | --- | --- | --- | --- |
| S=C=NC1CC1 [Compound 17, isothiocyanatocyclopropane] | 29.7 µM | > 50 µM | > 50 µM | > 50 µM | > 30 µM | > 30 µM | > 50 µM | > 50 µM | > 30 µM | > 50 µM | > 50 µM | > 50 µM | > 50 µM | > 50 µM | 15.1 µM | 12.6 µM | > 200 µM | > 200 µM | > 50 µM | > 50 µM | Cancerous Average IC50 / Average IC50 in Cancer Cell Lines [20, 24]: >50.00^c μM; IC50 [21]: > 200 µM |
| CC(C)CN=C=S [Compound 15, 1-isothiocyanato-2-methylpropane] | > 50 µM | > 50 µM | 27.6 µM | > 50 µM | 32.8 µM | > 30 µM | > 50 µM | > 50 µM | > 50 µM | > 50 µM | > 50 µM | > 50 µM | > 50 µM | > 50 µM | > 50 µM | > 50 µM | > 200 µM | > 200 µM | > 50 µM | > 50 µM | IC50 ([20]; Homo sapiens, Calcein AM and CellTiter Glo, all cell lines (FIG. 3 legend), read-out: IC50, all cell lines): > 50 µM; Cancerous Average IC50 / Average IC50 in Cancer Cell Lines [20, 24]: >50.00^b μM; IC50 [21]: > 200 µM |
| S=C=Nc1ccccc1 [Compound 19, 1-isothiocyanatobenzene] | > 50 µM | > 50 µM | > 20 µM | > 20 µM | > 50 µM | > 20 µM | 2.32 µM | > 50 µM | > 50 µM | > 50 µM | > 20 µM | > 20 µM | > 50 µM | > 20 µM | > 50 µM | > 50 µM | > 200 µM | > 200 µM | > 50 µM | >50.00 µM | IC50 [21]: > 200 µM |
| Cc1c(N=C=S)c(=O)n(-c2ccccc2)n1C [Compound 37, 4-isothiocyanato-2,3-dimethyl-1-phenyl-1,2-dihydropyrazol-5-one] | > 50 µM | > 50 µM | > 50 µM | > 50 µM | > 50 µM | > 50 µM | > 50 µM | > 50 µM | > 50 µM | > 50 µM | > 50 µM | > 50 µM | > 50 µM | > 50 µM | > 50 µM | > 50 µM | > 200 µM | > 200 µM | > 50 µM | > 50 µM | IC50 [21]: > 200 µM |
| S=C=NCc1ccccc1-c1ccccc1 [Compound 33, 1-(isothiocyanatomethyl)-2-phenylbenzene] | 3.16 µM | 5.25 µM | 5.56 µM | 4.64 µM | 10.6 µM | 4.24 µM | 4.79 µM | 6.39 µM | 5.93 µM | 5.01 µM | 4.12 µM | 4.11 µM | 6.44 µM | 8.95 µM | 1.6 µM | 3.63 µM | < 12.5 µM | 80.1 µM | 39.9 µM | 4.96 µM | selectivity for cancer cells over NmuMG cells ([20]; IC50 in NmuMG versus average IC50 in cancer cell lines): 36.3 fold; further fold increase in potency from multiple phenyl rings ([20]; average IC50 compared with single-ring 23 and 38): ~2 fold; IC50 [21]: 180 µM |
| S=C=NCc1ccco1 [Compound 24, 2-(isothiocyanatomethyl)furan] | > 50 µM | > 50 µM | > 50 µM | > 50 µM | > 30 µM | > 30 µM | > 50 µM | > 50 µM | > 30 µM | > 50 µM | 21.6 µM | > 50 µM | > 50 µM | > 50 µM | > 50 µM | > 50 µM | 151 µM | > 200 µM | > 50 µM | > 50 µM | IC50 [21]: 151 µM |
| O=C(CCCCCCC(=O)Nc1cccnc1)NO [Compound 7, pyroxamide] | – | – | – | – | – | – | – | – | – | – | – | – | – | – | – | – | – | – | – | – | IC50 [22]: 6.5 ± 0.5 µM; IC50 [23]: 1 to 20 µM |
| S=C=Nc1ccc(Br)cc1 [Compound 20, 1-bromo-4-isothiocyanatobenzene] | > 50 µM | 41.4 µM | > 50 µM | 21.6 µM | > 50 µM | > 50 µM | > 50 µM | 24.9 µM | > 50 µM | 19.6 µM | > 50 µM | 23.1 µM | > 50 µM | 10.4 µM | 26.7 µM | 17.1 µM | 183 µM | 21.4 µM | > 50 µM | > 50 µM | Cancerous Average IC50 / Average IC50 in Cancer Cell Lines [20, 24]: >50.00^e μM; IC50 [21]: 183 µM |
| S=C=NCCC1=CCCCC1 [Compound 39, 1-(2-isothiocyanatoethyl)cyclohex-1-ene] | 25.5 µM | 18.6 µM | 19 µM | 16.4 µM | 28.5 µM | 16.1 µM | 3.89 µM | 13.6 µM | 19.5 µM | 24.1 µM | 12.2 µM | 26.9 µM | 28.6 µM | 36.4 µM | 27.5 µM | 19.8 µM | 13 µM | > 200 µM | 45.3 µM | 18.3 µM | IC50 [21]: 13 µM |
